{"source": "paper PMC9945734", "about": "(BMC Medicine, 2023)", "key": {"RAW264.7 cells": {"test_system": "RAW264.7 cells", "test": "RANKL-induced osteoclast differentiation, TRAP staining", "type": "cell-based", "conditions": "RANKL 50 ng/mL", "procedure": "Three different culture systems were used for the in vitro osteoclast differentiation assay. In the first one, RAW264.7 cells were seeded onto 96-well plates at 1 × 10^3 cells/well and cultured overnight. Cells were then stimulated with recombinant mouse RANKL (Cat #: CR06, Novoprotein, Shanghai, China) at 50 ng/mL in the presence or absence of various concentrations of NTZ (0, 6.25, 12.5, 25 μM). […] Cells were then fixed in 4% paraformaldehyde for 10 min, rinsed with prewarmed deionized water, and stained with tartrate-resistant acid phosphatase (TRAP) using a kit from Sigma-Aldrich (Cat #: A387) to visualize osteoclasts (≥ 3 nuclei/cell). The effect of NTZ on osteoclast differentiation was determined by counting the number of multinucleated cells using the Image J software (Image J 1.48v)."}, "PC-3-KQ cells": {"test_system": "PC-3-KQ cells", "test": "3D spheroid invasion assay and screening of FDA-approved drugs", "type": "cell-based, human", "conditions": "Homo sapiens; for activity at 0.01 µM / activity at 0.1 µM / activity at 1 µM / activity at 10 µM: 72 h, compared to vehicle control, read-out: Invasion rates (%) of each drug’s multiple concentrations", "summary_of_the_method": "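Cells were clustered into spheroids by centrifugation and grown 3 days, then embedded in matrigel-medium containing drug on day 4 and cultured another 3 days. Drugs were screened at 10 μM first, then at 0–10 μM, in duplicate wells. Invasion area is total area minus core sphere area from phase-contrast images.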"}, "[1]": {"conditions": "secondary screening of 87 hit compounds (Table S1)"}, "[2]": {"conditions": "third screening of 25 hit compounds (Table S2)"}}, "note": "Like-named read-outs stand apart in the source and are kept apart here."}
{"compound": "CC(=O)Oc1ccccc1C(=O)Nc1ncc([N+](=O)[O-])s1", "note": "[Nitazoxanide]", "values": [{"measurement": "number of TRAP^+ multinucleated cells", "setting": "RAW264.7 cells; 6.25 and 12.5 μM", "value": "significantly decreased"}, {"measurement": "number of TRAP^+ multinucleated cells", "setting": "RAW264.7 cells; NTZ 0, 6.25, 12.5, 25 μM", "value": "decreased the number of TRAP^+ multinucleated cells in a dose-dependent manner"}, {"measurement": "activity at 0.01 µM", "setting": "PC-3-KQ cells; 0.01 μM (first column so headed), secondary screening of 87 hit compounds (Table S1)", "value": 79.3, "unit": "%"}, {"measurement": "activity at 0.01 µM", "setting": "PC-3-KQ cells; 0.01 μM (first column so headed), third screening of 25 hit compounds (Table S2)", "value": 94.1, "unit": "%"}, {"measurement": "activity at 0.01 µM", "setting": "PC-3-KQ cells; 0.01 μM (second column so headed), secondary screening of 87 hit compounds (Table S1)", "value": 79.5, "unit": "%"}, {"measurement": "activity at 0.01 µM", "setting": "PC-3-KQ cells; 0.01 μM (second column so headed), third screening of 25 hit compounds (Table S2)", "value": 94.3, "unit": "%"}, {"measurement": "activity at 0.1 µM", "setting": "PC-3-KQ cells; [1]", "value": 45.6, "unit": "%"}, {"measurement": "activity at 0.1 µM", "setting": "PC-3-KQ cells; [2]", "value": 44, "unit": "%"}, {"measurement": "activity at 1 µM", "setting": "PC-3-KQ cells; [1]", "value": 4.45, "unit": "%"}, {"measurement": "activity at 1 µM", "setting": "PC-3-KQ cells; [2]", "value": 6.41, "unit": "%"}, {"measurement": "activity at 10 µM", "setting": "PC-3-KQ cells; [1]", "value": 3.4, "unit": "%"}, {"measurement": "activity at 10 µM", "setting": "PC-3-KQ cells; [2]", "value": 1.24, "unit": "%"}, {"measurement": "inhibition at 0.1 µM", "setting": "PC-3-KQ cells; at 0.1 μM, read-out: inhibition of cell invasion", "value": "> 50", "unit": "%"}]}
